Source: PubChem BioAssay (NCI)
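Briefly, cells in 96-well plates were exposed to five compound concentrations for 48 h, and endpoints were estimated by linear interpolation. TGI is the concentration that stops growth completely.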

How the values were obtained:
Assay in all cases: DTP human tumour cell line panel, 48 h
NCI-H226 lung = tested on: NCI-H226 lung
SNB-75 CNS = tested on: SNB-75 CNS
A549 NSCLC = tested on: A549 NSCLC
M14 melanoma = tested on: M14 melanoma
RXF-631 renal = tested on: RXF-631 renal
HL-60(TB) leukemia = tested on: HL-60(TB) leukemia
KM20L2 colon = tested on: KM20L2 colon
CCRF-CEM leukemia = tested on: CCRF-CEM leukemia
RXF 393 renal = tested on: RXF 393 renal
CAKI-1 renal = tested on: CAKI-1 renal
U251 CNS = tested on: U251 CNS
NCI-H460 lung = tested on: NCI-H460 lung
ACHN renal = tested on: ACHN renal
NCI-H23 lung = tested on: NCI-H23 lung
786-0 renal = tested on: 786-0 renal
HCT-116 colon = tested on: HCT-116 colon
HOP-92 NSCLC = tested on: HOP-92 NSCLC
SN12C renal = tested on: SN12C renal
SW-620 colon = tested on: SW-620 colon
SNB-19 CNS = tested on: SNB-19 CNS
UACC-257 melanoma = tested on: UACC-257 melanoma
KM12 colon = tested on: KM12 colon
COLO 205 colon = tested on: COLO 205 colon
IGROV1 ovarian = tested on: IGROV1 ovarian
UACC-62 melanoma = tested on: UACC-62 melanoma
DLD-1 colon = tested on: DLD-1 colon
HCT-15 colon = tested on: HCT-15 colon
SF-268 CNS = tested on: SF-268 CNS
SK-MEL-2 melanoma = tested on: SK-MEL-2 melanoma
DMS 273 small cell lung = tested on: DMS 273 small cell lung
MOLT-4 leukemia = tested on: MOLT-4 leukemia
OVCAR-5 ovarian = tested on: OVCAR-5 ovarian
HT29 colon = tested on: HT29 colon
LXFL 529 NSCLC = tested on: LXFL 529 NSCLC
LOX IMVI melanoma = tested on: LOX IMVI melanoma
SK-MEL-28 melanoma = tested on: SK-MEL-28 melanoma
RPMI-8226 leukemia = tested on: RPMI-8226 leukemia
HCC-2998 colon = tested on: HCC-2998 colon
SK-MEL-5 melanoma = tested on: SK-MEL-5 melanoma
DMS 114 small cell lung = tested on: DMS 114 small cell lung
HOP-18 NSCLC = tested on: HOP-18 NSCLC
SF-295 CNS = tested on: SF-295 CNS
OVCAR-4 ovarian = tested on: OVCAR-4 ovarian
TK-10 renal = tested on: TK-10 renal
OVCAR-3 ovarian = tested on: OVCAR-3 ovarian
M19-MEL melanoma = tested on: M19-MEL melanoma
SNB-78 CNS = tested on: SNB-78 CNS
EKVX NSCLC = tested on: EKVX NSCLC
A498 renal = tested on: A498 renal
OVCAR-8 ovarian = tested on: OVCAR-8 ovarian
MALME-3M melanoma = tested on: MALME-3M melanoma
K-562 leukemia = tested on: K-562 leukemia
XF 498 CNS = tested on: XF 498 CNS
UO-31 renal = tested on: UO-31 renal
SF-539 CNS = tested on: SF-539 CNS
SK-OV-3 ovarian = tested on: SK-OV-3 ovarian

Measured: TGI

COc1ccccc1NC(=O)C1=C(C)NC(C)=C(C(=O)Nc2ccccc2OC)C1c1cccc2ccccc12
7.87 µM: HOP-92 NSCLC
41.5 µM: OVCAR-4 ovarian
62.5 µM: SNB-78 CNS
98.8 µM: SNB-75 CNS
> 100 µM: all other assays above
